Reference: patent US11180474B2 (BRISTOL-MYERS SQUIBB COMPANY, priority 2016, dated 2021)

target: T1, human TLR8 (Homo sapiens, UniProt Q9NR97); assay: TLR8 inhibition reporter assay (HEK-Blue cells, SEAP reporter, R848 stimulation); type: cell-based; conditions: HEK-Blue cells overexpressing human TLR8, R848 15.9 μM
T1 construct: host or cells: HEK-Blue cells
T1 sequence (Q9NR97 27-1041): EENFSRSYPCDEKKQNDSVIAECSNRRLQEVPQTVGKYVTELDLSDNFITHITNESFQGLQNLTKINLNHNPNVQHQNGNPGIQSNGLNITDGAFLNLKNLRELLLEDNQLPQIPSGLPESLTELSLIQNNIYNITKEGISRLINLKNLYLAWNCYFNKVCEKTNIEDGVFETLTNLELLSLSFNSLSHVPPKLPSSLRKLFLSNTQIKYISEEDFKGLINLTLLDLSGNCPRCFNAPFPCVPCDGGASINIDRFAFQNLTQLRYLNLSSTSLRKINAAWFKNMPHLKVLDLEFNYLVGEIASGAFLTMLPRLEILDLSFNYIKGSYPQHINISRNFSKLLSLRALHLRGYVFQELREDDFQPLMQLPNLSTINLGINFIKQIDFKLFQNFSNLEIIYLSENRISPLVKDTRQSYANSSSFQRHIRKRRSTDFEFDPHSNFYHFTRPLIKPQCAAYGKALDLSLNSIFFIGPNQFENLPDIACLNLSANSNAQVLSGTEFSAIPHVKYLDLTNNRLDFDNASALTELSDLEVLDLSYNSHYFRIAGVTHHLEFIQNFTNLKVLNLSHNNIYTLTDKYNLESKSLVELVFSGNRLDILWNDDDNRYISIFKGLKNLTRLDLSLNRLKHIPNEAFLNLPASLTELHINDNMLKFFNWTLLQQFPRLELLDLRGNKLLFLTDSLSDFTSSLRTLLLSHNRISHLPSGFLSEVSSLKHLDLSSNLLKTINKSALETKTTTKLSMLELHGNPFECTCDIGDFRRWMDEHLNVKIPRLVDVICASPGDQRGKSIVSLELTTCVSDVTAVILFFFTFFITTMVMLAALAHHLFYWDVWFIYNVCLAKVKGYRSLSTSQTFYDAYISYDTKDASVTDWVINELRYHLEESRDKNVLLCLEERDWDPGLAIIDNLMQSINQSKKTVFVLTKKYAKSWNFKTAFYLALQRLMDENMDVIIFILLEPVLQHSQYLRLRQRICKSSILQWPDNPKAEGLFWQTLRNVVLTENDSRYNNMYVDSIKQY
Procedure, shortened: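 SEAP readout via HEK-Blue Detection medium after 22 h at 37 °C, 5% CO2 defines inhibition, normalized between agonist-plus-DMSO wells and a reference inhibitor. Compound dose range 0.05 nM–50 μM; TLR7 cells at 15,000/well (gardiquimod), TLR8 at 20,000/well (R848).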

Compared with COc1ccc(-c2[nH]c3ccc(C4CCN(C(=O)CN5CCC[C@H](C(=O)NC6(CO)CCCC6)C5)CC4)cc3c2C(C)C)cc1OC [Example 296, (S)-1-(2-(4-(2-(3,4-dimethoxyphenyl)-3-isopropyl-1H-indol-5-yl)piperidin-1-yl)-2-oxoethyl)-N-(1-(hydroxymethyl)cyclopentyl)piperidine-3-carboxamide], COc1ccc(-c2[nH]c3ccc(C4CCN(C(=O)CN5CCC[C@H](C(=O)NC(C)C)C5)CC4)cc3c2C(C)C)cc1OC [Example 285, (S)-1-(2-(4-(2-(3,4-dimethoxyphenyl)-3-isopropyl-1H-indol-5-yl)piperidin-1-yl)-2-oxoethyl)-N-isopropylpiperidine-3-carboxamide] is 1.7-fold higher in IC50: 22 nM for the first, 37 nM for the second.

First: COc1ccc(-c2[nH]c3ccc(C4CCN(C(=O)CNC[C@@H](F)C(C)(C)O)CC4)cc3c2C(C)C)cc1OC [Example 251, (R)-1-(4-(2-(3,4-dimethoxyphenyl)-3-isopropyl-1H-indol-5-yl)piperidin-1-yl)-2-((2-fluoro-3-hydroxy-3-methylbutyl)amino) ethan-1-one]
Second: COc1ccc(-c2[nH]c3ccc(C4CCN(C(=O)CNCCC(C)O)CC4)cc3c2C(C)C)cc1OC (stereo not drawn) [Example 237, 1-(4-(2-(3,4-dimethoxyphenyl)-3-isopropyl-1H-indol-5-yl)piperidin-1-yl)-2-((3-hydroxybutyl)amino)ethan-1-one]
The IC50 of the first is 34-fold higher: 750 nM for the first, 22 nM for the second. The second is the more potent here.

COc1ccc(-c2[nH]c3ccc(C4CCN(C(=O)CN5CCC[C@@H](C(=O)N6C(C)CCC6C)C5)CC4)cc3c2C(C)C)cc1OC (stereo partly drawn) [Example 311, 1-(4-(2-(3,4-dimethoxyphenyl)-3-isopropyl-1H-indol-5-yl)piperidin-1-yl)-2-((3R)-3-(2,5-dimethylpyrrolidine-1-carbonyl)piperidin-1-yl)ethan-1-one] and COc1ccc(-c2[nH]c3ccc(C4CCN(C(=O)CN5CCC[C@H](C(=O)N6C(C)CCC6C)C5)CC4)cc3c2C(C)C)cc1OC (stereo partly drawn) [Example 300, 1-(4-(2-(3,4-dimethoxyphenyl)-3-isopropyl-1H-indol-5-yl)piperidin-1-yl)-2-((3S)-3-(2,5-dimethylpyrrolidine-1-carbonyl)piperidin-1-yl)ethan-1-one] are within 1.5-fold of each other in IC50: 60 nM for the first, 70 nM for the second.

Going from COc1ccc(-c2[nH]c3ccc(C4CCN(C(=O)CNC5CCC(O)CC5)CC4)cc3c2C(C)C)cc1OC (stereo not drawn) [Example 246, 1-(4-(2-(3,4-dimethoxyphenyl)-3-isopropyl-1H-indol-5-yl)piperidin-1-yl)-2-((4-hydroxycyclohexyl)amino)ethan-1-one] to COc1ccc(-c2[nH]c3ccc(C4CCN(C(=O)CO)CC4)cc3c2C(C)C)cc1OC [Example 313, 1-(4-(2-(3,4-dimethoxyphenyl)-3-isopropyl-1H-indol-5-yl)piperidin-1-yl)-2-hydroxyethanone], the IC50 rises from 19 nM to 496 nM (26-fold).

Going from COc1ccc(-c2[nH]c3ccc(C4CCN(C5C[C@H]6CC[C@@H](C5)N6C)CC4)cc3c2C)cc1OC (stereo partly drawn) [Example 21, 2-(3,4-dimethoxyphenyl)-3-methyl-5-(1-((1R,5S)-8-methyl-8-azabicyclo[3.2.1]octan-3-yl)piperidin-4-yl)-1H-indole] to COc1ccc(-c2[nH]c3ccc(C4CCN(C5CCN(C6CC6)CC5)CC4)cc3c2C)cc1OC [Example 23, 5-(1′-cyclopropyl-[1,4′-bipiperidin]-4-yl)-2-(3,4-dimethoxyphenyl)-3-methyl-1H-indole], the IC50 falls from 242 nM to 151 nM (1.6-fold).

COc1ccc(-c2[nH]c3ccc(C4CCN(C(=O)CN5CCC[C@H](C(=O)N6CCN(Cc7ccc(Br)cc7)CC6)C5)CC4)cc3c2C(C)C)cc1OC [Example 294, (S)-2-(3-(4-(4-bromobenzyl)piperazine-1-carbonyl)piperidin-1-yl)-1-(4-(2-(3,4-dimethoxyphenyl)-3-isopropyl-1H-indol-5-yl)piperidin-1-yl)ethan-1-one] and COc1ccc(-c2[nH]c3ccc(C4CCN(C(=O)CN5CCC[C@H](C(=O)N6CCN(c7cccc(C(F)(F)F)c7)CC6)C5)CC4)cc3c2C(C)C)cc1OC [Example 290, (S)-1-(4-(2-(3,4-dimethoxyphenyl)-3-isopropyl-1H-indol-5-yl)piperidin-1-yl)-2-(3-(4-(3-(trifluoromethyl)phenyl)piperazine-1-carbonyl)piperidin-1-yl)ethan-1-one] are within 1.5-fold of each other in IC50: 554 nM for the first, 803 nM for the second.

Going from COc1ccc(-c2[nH]c3ccc(C4CCN(C(=O)CN[C@H](CO)CC(C)C)CC4)cc3c2C(C)C)cc1OC [Example 231, (S)-1-(4-(2-(3,4-dimethoxyphenyl)-3-isopropyl-1H-indol-5-yl)piperidin-1-yl)-2-((1-hydroxy-4-methylpentan-2-yl)amino)ethan-1-one] to COc1ccc(-c2[nH]c3ccc(C4CCN(C(=O)CNCC(N)=O)CC4)cc3c2C(C)C)cc1OC [Example 228, 2-((2-(4-(2-(3,4-dimethoxyphenyl)-3-isopropyl-1H-indol-5-yl)piperidin-1-yl)-2-oxoethyl)amino)acetamide], the IC50 rises from 63 nM to 118 nM (1.9-fold). The first is the more potent here.

COc1ccc(-c2[nH]c3ccc(C4CCN(C(=O)CN5CCC(CO)CC5)CC4)cc3c2C(C)C)cc1OC [Example 243, 1-(4-(2-(3,4-dimethoxyphenyl)-3-isopropyl-1H-indol-5-yl)piperidin-1-yl)-2-(4-(hydroxymethyl)piperidin-1-yl)ethan-1-one] and COc1ccc(-c2[nH]c3ccc(C4CCN(CC(=O)N5CCCC(CO)C5)CC4)cc3c2C(C)C)cc1OC (stereo not drawn) [Example 275, 2-(4-(2-(3,4-dimethoxyphenyl)-3-isopropyl-1H-indol-5-yl)piperidin-1-yl)-1-(3-(hydroxymethyl)piperidin-1-yl)ethan-1-one] are within 1.5-fold of each other in IC50: 16 nM for the first, 22 nM for the second.

First: COc1ccc(-c2[nH]c3ccc(C4CCN(C(=O)CN5CCC[C@H](C(=O)N6CCCC6)C5)CC4)cc3c2C(C)C)cc1OC [Example 287, (S)-1-(4-(2-(3,4-dimethoxyphenyl)-3-isopropyl-1H-indol-5-yl)piperidin-1-yl)-2-(3-(pyrrolidine-1-carbonyl)piperidin-1-yl)ethan-1-one]
Second: COc1ccc(-c2[nH]c3ccc(C4CCN(C(=O)CN5CCC[C@@H](C(=O)N6CCC(CCO)CC6)C5)CC4)cc3c2C(C)C)cc1OC [Example 306, (R)-1-(4-(2-(3,4-dimethoxyphenyl)-3-isopropyl-1H-indol-5-yl)piperidin-1-yl)-2-(3-(4-(2-hydroxyethyl)piperidine-1-carbonyl)piperidin-1-yl)ethan-1-one]
The IC50 of the first is 2.2-fold lower: 33 nM for the first, 73 nM for the second. The first is the more potent here.

First: COc1ccc(-c2[nH]c3ccc(C4CCN(Cc5cnc(C)[nH]5)CC4)cc3c2C(C)C)cc1OC [Example 266, 2-(3,4-dimethoxyphenyl)-3-isopropyl-5-(1-((2-methyl-1H-imidazol-5-yl)methyl)piperidin-4-yl)-1H-indole]
Second: COc1ccc(-c2[nH]c3ccc(C4CCN(CC(=O)N5CC[C@H](O)C5)CC4)cc3c2C(C)C)cc1OC [Example 278, (S)-2-(4-(2-(3,4-dimethoxyphenyl)-3-isopropyl-1H-indol-5-yl)piperidin-1-yl)-1-(3-hydroxypyrrolidin-1-yl)ethan-1-one]
The IC50 of the first is 1.8-fold higher: 20 nM for the first, 11 nM for the second. The second is the more potent here.

Going from COc1ccc(-c2[nH]c3ccc(C4CCN(C(=O)CN5CCC[C@@H](C(=O)N6CC7CNCC7C6)C5)CC4)cc3c2C(C)C)cc1OC (stereo partly drawn) [Example 310, 1-(4-(2-(3,4-dimethoxyphenyl)-3-isopropyl-1H-indol-5-yl)piperidin-1-yl)-2-((3R)-3-(octahydropyrrolo[3,4-c]pyrrole-2-carbonyl)piperidin-1-yl) ethan-1-one] to COc1ccc(-c2[nH]c3ccc(C4CCN(C(=O)CN5CCC[C@H](C(=O)N(C)C(C)C)C5)CC4)cc3c2C(C)C)cc1OC [Example 288, (S)-1-(2-(4-(2-(3,4-dimethoxyphenyl)-3-isopropyl-1H-indol-5-yl)piperidin-1-yl)-2-oxoethyl)-N-isopropyl-N-methylpiperidine-3-carboxamide], the IC50 falls from 488 nM to 32 nM (15-fold).

Going from COc1ccc(-c2[nH]c3ccc(C4CCN(CC(=O)NC5CCN(C(C)C)CC5)CC4)cc3c2C(C)C)cc1OC [Example 273, 2-(4-(2-(3,4-dimethoxyphenyl)-3-isopropyl-1H-indol-5-yl)piperidin-1-yl)-N-(1-isopropylpiperidin-4-yl)acetamide] to COc1ccc(-c2[nH]c3ccc(C4CCN(C(=O)CN5CCC(N(C)C)CC5)CC4)cc3c2C(C)C)cc1OC [Example 244, 1-(4-(2-(3,4-dimethoxyphenyl)-3-isopropyl-1H-indol-5-yl)piperidin-1-yl)-2-(4-(dimethylamino)piperidin-1-yl)ethan-1-one], the IC50 falls from 29 nM to 16 nM (1.8-fold). The second is the more potent here.
